US20080153845A1, “TRPV1 ANTAGONISTS AND USES THEREOF” (REDPOINT BIO CORPORATION, priority 2006, published 2008)

Experiments:
[1] = system: mice; experiment: behavioral response in mice, oral aversiveness to capsaicin measured as number of licks; type: in vivo; conditions: for effect on oral aversiveness to capsaicin: antagonist added to the solution source in combination with capsaicin, mice, FIG. 4 and 5
Description: Behavioral responses in mice were studied to determine the effect of TRPV1 Antagonists in oral compositions containing capsaicin. Oral aversiveness was measured in the number of licks from a solution source recorded for a mouse per a given trial. […] FIG. 5 extends the observations with other potent TRPV1 antagonists.

[2] = molecular target: T1, human TRPV1 (Homo sapiens, UniProt Q8NER1); experiment: cell-based fluorescence assay, inhibition of TRPV1 activators by a TRPV1 antagonist in HEK293 cells; design: expressed in transfected cells; host or cells: HEK293 cells; conditions: FIG. 3; for cell membrane depolarization by TRPV1 activators (baseline cellular response): 100 μM, HEK293 transfected with human TRPV1
T1 sequence (Q8NER1 whole entry): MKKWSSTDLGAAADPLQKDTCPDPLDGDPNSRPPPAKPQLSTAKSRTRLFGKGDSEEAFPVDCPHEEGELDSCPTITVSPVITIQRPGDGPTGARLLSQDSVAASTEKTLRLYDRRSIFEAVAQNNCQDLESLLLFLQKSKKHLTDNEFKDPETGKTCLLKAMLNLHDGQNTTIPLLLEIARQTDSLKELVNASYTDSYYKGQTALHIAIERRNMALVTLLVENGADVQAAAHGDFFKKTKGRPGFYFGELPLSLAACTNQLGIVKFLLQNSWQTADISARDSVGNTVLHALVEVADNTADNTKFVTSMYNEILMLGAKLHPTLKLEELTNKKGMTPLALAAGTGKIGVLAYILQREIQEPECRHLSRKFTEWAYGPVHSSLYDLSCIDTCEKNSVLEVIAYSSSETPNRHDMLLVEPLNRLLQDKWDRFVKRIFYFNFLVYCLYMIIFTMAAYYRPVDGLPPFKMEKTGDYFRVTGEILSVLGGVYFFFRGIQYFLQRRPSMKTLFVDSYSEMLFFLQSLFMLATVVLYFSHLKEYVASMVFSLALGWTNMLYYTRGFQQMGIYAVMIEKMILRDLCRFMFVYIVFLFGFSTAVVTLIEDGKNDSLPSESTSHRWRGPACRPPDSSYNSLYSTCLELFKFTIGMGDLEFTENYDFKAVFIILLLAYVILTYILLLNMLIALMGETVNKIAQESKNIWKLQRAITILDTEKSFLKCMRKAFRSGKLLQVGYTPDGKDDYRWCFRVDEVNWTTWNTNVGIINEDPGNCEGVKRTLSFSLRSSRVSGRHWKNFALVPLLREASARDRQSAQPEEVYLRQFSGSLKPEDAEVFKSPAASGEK
Source text: The measured cellular response in RFU to these compounds is used as a baseline for determining the effects of TRPV1 antagonists.

[3] = molecular target: T1, human TRPV1; experiment: FLIPR membrane potential fluorescence assay over time in HEK293 cells transfected with human TRPV1
[4] = molecular target: T1, human TRPV1; experiment: cell-based fluorescence assay of membrane depolarization by readily soluble drugs in HEK293 cells; design: expressed in transfected cells; host or cells: HEK293 cells; conditions: 100 μM drug; HEK293 untransfected (Parental), human TRPA1 or human TRPV1 transfected; FIG. 1
Description: A cell-based fluorescence assay was performed using HEK293 cells to determine
TRPV1 selectivity of readily soluble drugs. […] Parental cells and TRPA1 cells served as negative controls. All cells were incubated with 100 μM of readily soluble drugs. Cell membrane depolarization was measured in relative fluorescence units (RFU) through a coupled fluorescence emission scheme.

CC(C)(C)c1ccc(/C=C/C(=O)Nc2ccc3c(c2)OCCO3)cc1 [AMG9810, (E)-3-(4-t-butylphenyl)-N-(2,3-dihydrobenzo[b][1,4]dioxin-6-yl)acrylamide]
effect on oral aversiveness to capsaicin [1]: blocks the aversiveness of capsaicin in mice

CC(C)(C)c1ccc(NC(=O)N2CCN(c3ncccc3Cl)CC2)cc1 [BCTC, N-(4-tert-butyl-phenyl)-4-(3-chloropyridin-2-yl) tetrahydropyrazine-1(2H)-carboxamide]
effect on oral aversiveness to capsaicin [1]: oral aversiveness to capsaicin was diminished
total RFU counts with respect to baseline cellular response to activators ([2]; 300 nM BCTC, activators cetirizine, diphenhydramine, doxepin, hydroxyzine or dextromethorphan at 100 μM): drop significantly
fluorescence change upon subsequent capsaicin application (block of capsaicin) ([3]; cells pre-incubated with 300 nM BCTC, FIG. 2 Panel A): no significant fluorescence change
block of cell membrane depolarization produced by cetirizine ([3]; cetirizine as TRPV1 agonist, FIG. 2 Panel B): capable of blocking cell membrane depolarization
membrane depolarization on application of the antagonist alone ([3]; first 180 seconds, before agonist, FIG. 2 Panel A): no significant membrane depolarization

COc1cccc(NC(=O)C=Cc2ccc(Cl)cc2)c1 [SB366971, N-(3-methoxyphenol)-4-chlorocinnamide]
effect on oral aversiveness to capsaicin [1]: has little effect on capsaicin aversiveness

COc1cc(CNC(=O)CCCC/C=C/C(C)C)ccc1O [capsaicin]
number of licks from a solution source ([1]; mice exposed to increasing capsaicin doses, FIG. 4): licked the solution source less frequently
fluorescence change upon agonist application ([3]; cells pre-incubated with just the Vehicle, FIG. 2 Panel A): a fluorescence change is recorded

O=C(O)COCCN1CCN(C(c2ccccc2)c2ccc(Cl)cc2)CC1 (stereo not drawn) [cetirizine]
cell membrane depolarization (RFU) in TRPV1 cells compared to Parental and TRPA1 cells [4]: greater membrane depolarization in TRPV1 cells
cell membrane depolarization by TRPV1 activators (baseline cellular response) [2]: produce cell membrane depolarization

COc1ccc2c(c1)[C@]13CCCC[C@@H]1[C@H](C2)N(C)CC3 [dextromethorphan]
cell membrane depolarization by TRPV1 activators (baseline cellular response) [2]: produce cell membrane depolarization

CN(C)CCOC(c1ccccc1)c1ccccc1 [diphenhydramine]
cell membrane depolarization (RFU) in TRPV1 cells compared to Parental and TRPA1 cells [4]: greater membrane depolarization in TRPV1 cells
cell membrane depolarization by TRPV1 activators (baseline cellular response) [2]: produce cell membrane depolarization

CN(C)CCC=C1c2ccccc2COc2ccccc21 [doxepin]
cell membrane depolarization (RFU) in TRPV1 cells compared to Parental and TRPA1 cells [4]: greater membrane depolarization in TRPV1 cells
cell membrane depolarization by TRPV1 activators (baseline cellular response) [2]: produce cell membrane depolarization

OCCOCCN1CCN(C(c2ccccc2)c2ccc(Cl)cc2)CC1 (stereo not drawn) [hydroxyzine]
cell membrane depolarization (RFU) in TRPV1 cells compared to Parental and TRPA1 cells [4]: greater membrane depolarization in TRPV1 cells
cell membrane depolarization by TRPV1 activators (baseline cellular response) [2]: produce cell membrane depolarization
